# Results taken from patent publication US20150190416A1, “FILAGGRIN PRODUCTION PROMOTER, THERAPEUTIC AGENT FOR DISEASES ASSOCIATED WITH REDUCTION IN PRODUCTION OF FILAGGRIN, AND METHOD FOR SCREENING FOR SAID THERAPEUTIC AGENT” (KYOTO UNIVERSITY, priority 2012, published 2015).
# How the values were obtained:
# Type in all cases: cell-based, human
# [1] = system: GPR142; assay: G protein-coupled receptor (GPCR) array in NHEK cells, GPR142 (Example 3); settings: Compound 1 1 μM, 3 days
# Description: In this example, the expression-increasing effect of Compound 1 on a GPCR in NHEK cells was confirmed by using a GPCR array.
# (§1) 1) 5×10^4 cells/well of NHEK cells (Invitrogen) were plated on a 24-well plate, and then 500 μl of a culture medium containing a medium for proliferating normal human epidermal keratinocytes (HuMedia-KG2, KURABO INDUSTRIES LTD.) supplemented with hEGF (0.1 ng/ml), insulin (10 μg/ml), hydrocortisone (0.5 μg/ml), gentamycin (50 μg/ml), amphotericin B (50 ng/ml), and bovine brain pituitary extract (BPE) (0.4%, v/v) were added to the plate, and the cells were cultured under the conditions of 37° C. and 5% CO2 for from 3 to 4 days until the 80 to 85% confluent state was achieved.
# 2) Next, a DMSO solution of Compound 1 was added to the medium at 1 μM per well, and culture was further conducted for 3 days without changing the medium. In addition, regarding the system to which only CaCl2 (1.5 mM in terms of Ca) as Ca was added and the system to which both Compound 1 and CaCl2 (1.5 mM in terms of Ca) as Ca were added, the culture was conducted in a similar manner for 3 days. As a control example, a solvent only (vehicle) was added.
# 3) An extraction reagent (TRIzol™, Invitrogen) was used, and according to the manufacturer's protocol, total RNA was extracted from each of cells treated in the step 2). A reverse transcriptase reagent (Prime Script™, Takara) was used, and according to the manufacturer's protocol, cDNA was prepared from the total RNA. Next, a TaqMan™ human GPCR array (AB 4365295, Applied Biosystems) was used, and the analysis was conducted by an ABI PRISM™ 7900HT gene analyzer (Applied Biosystems). The result of measurement was shown as the comparison of the cycle number (ΔCt value) to 18S ribosomal RNA as a control (comparative Ct method).
# [2] = system: GPR142 mRNA; assay: GPR142 mRNA expression in NHEK cells, real-time PCR (Example 4); settings: Compound 1 1 μM, Ca 1.2 mM, 3 days, compared to the control
# Description: In this example, the expression-inducing effects of Compound 1 on GPR142 mRNA and GPR22 mRNA in NHEK cells were confirmed.
# as §1, with “plate. Then,” for “plate, and then”, “CO2.” for “CO2 for from 3 to 4 days until the 80 to 85% confluent state was achieved.”
# 2) After culture under the conditions of the step 1) for 1 day, the medium was exchanged for the culture medium of the step 1) to which a DMSO solution of Compound 1 was added at 1 μM per well every day and the culture was conducted for 3 days. […]
# 3) An extraction reagent (TRIzol™, Invitrogen) was used, and according to the manufacturer's protocol, total RNA was extracted from each of cells treated with the medicament. […] Next, real-time PCR was conducted by using the following primers and SYBR™ Premix Ex Taq (Takara) with a CFX96 real-time PCR instrument according to the manufacturer's protocol, and the amounts of GPR142mRNA and GPR22mRNA expression were measured. […]
# [3] = system: GPR142; assay: Blocking effect by GPR142 RNAi in NHEK cells (Examples 5 and 6); settings: calcium priming, siRNA 50 nM, Compound 1 10 nM, 1 day
# Description: In this example, it was confirmed that the expression-inducing effects of Compound 1 on GPR142 mRNA and FLG mRNA in NHEK cells were blocked by GPR142 RNAi.
# as §1, with “plate. Then,” for “plate, and then”, “CO2.” for “CO2 for from 3 to 4 days until the 80 to 85% confluent state was achieved.”
# 2) After culture under the conditions of the step 1) for 1 day, the medium was exchanged for the culture medium of the step 1) to which CaCl2 (1.2 mM in terms of Ca) was further added as Ca, and culture was conducted under the conditions of 37° C. and 5% CO2. After culture for 1 day, the medium was exchanged for the same culture medium containing Ca, and culture was further conducted for 1 day.
# 3) The NHEK cells of the step 2) were transfected with 50 nM of siRNA per well of the 24-well plate by using a transfection reagent, Lipofectamine RNA Max (Invitrogen) according to the manufacturer's protocol.
# The sequences of the used three kinds of GPR142 siRNAs and the sequences of the used control siRNAs (all the siRNAs are manufactured by Invitrogen) are described below.
# 4) After culture for 1 day after the transfection with siRNA in the step 3), the medium was exchanged for the culture medium of the step 1) to which a DMSO solution of Compound 1 was added at 10 nM per well, and culture was further conducted for 1 day. As a control, a solvent only (vehicle) was added.
# (§2) 5) An extraction reagent (TRIzol™, Invitrogen) was used, and according to the manufacturer's protocol, total RNA was extracted from each of cells treated with the medicament. A reverse transcriptase reagent (Prime Script™, Takara) was used, and according to the manufacturer's protocol, cDNA was prepared from the total RNA. Next, real-time PCR was conducted by using the following primers and SYBR™ Premix Ex Taq (Takara) with a CFX96 real-time PCR instrument according to the manufacturer's protocol, and the amounts of GPR142 mRNA and FLG mRNA expression were measured. The result of measurement is shown as a GAPDH ratio.
# In this example, it was confirmed that the expression-inducing effects of Compound 2 or 3 on GPR142 mRNA and FLG mRNA in NHEK cells were blocked by GPR142 RNAi.
# NHEK cells were transfected in the same manner as in Example 5 except that, in the steps 1) to 3) of Example 5, two kinds of GPR142 siRNAs and two kinds of control siRNAs, i.e., GPR142-1 (#HSS139493) and GPR142-3 (#HSS179846) and Control-1 (LOW GC, #129350-200), and Control-3 (HIGH GC, #129350-400) were used as GPR142 siRNAs and control siRNAs, respectively. After culture for 1 day after the transfection was conducted in the same manner as in the step 4) of Example 5, the medium was exchanged for the culture medium to which each of a DMSO solution of Compound 1, a DMSO solution of Compound 2, or a methanol solution of Compound 3 was added at 10 nM per well, and culture was further conducted for 1 day. As a control, a solvent only (vehicle) was added. Regarding each of cells treated with the medicament, real-time PCR was conducted to measure the amounts of GPR142 mRNA and FLG mRNA in the same manner as in the step 5) of Example 5. The results of the measurement are shown as a GAPDH ratio.
# [4] = system: GPR22; assay: Blocking effect by GPR22 RNAi in NHEK cells (Reference Example 1); settings: calcium priming, siRNA 10 nM, Compound 1 10 nM, 1 day
# Description: as §1, with “plate. Then,” for “plate, and then”, “CO2.” for “CO2 for from 3 to 4 days until the 80 to 85% confluent state was achieved.”
# 2) 1 day after the step 1), the medium was exchanged for the medium supplemented with calcium every day, and culture was conducted for 2 days (priming).
# 3) The NHEK cells of the step 2) were transfected with 10 nM of siRNA per well of the 24-well plate by using a transfection reagent, Lipofectamine RNA Max (Invitrogen) according to the manufacturer's protocol.
# 4) After culture for 1 day after the step 3), the medium was exchanged for a medium to which Compound 1 dissolved in DMSO was added at 10 nM per well on the 24-well plate, and culture was conducted for 1 day. As a control example, a solvent only (vehicle) was added.
# as §2, with “Real-time” for “Next, real-time”, “using” for “using the following primers and”, “GPR22” for “GPR142”, “mRNA” for “mRNA expression”, “results” for “result”, “are” for “is”
compound,measurement,setting,value
"[Ca+2].[Cl-].[Cl-] [Calcium, CaCl2, reference compound]","GPR142 mRNA expression (GPCR array), in words",[1]; Ca 1.5 mM,induced GPR142 mRNA expression
same,GPR142: cycle number (ΔCt value) to 18S ribosomal RNA,"[1]; CaCl2 1.5 mM in terms of Ca, control 29.2",−4.9
same,GPR142 mRNA expression (GAPDH ratio),[2],GPR142 mRNA expression was induced
same,FLG mRNA expression in the presence of GPR142 siRNA,[3],suppressed by GPR142 siRNA
same,GPR142 mRNA expression in the presence of GPR142 siRNA,[3],suppressed by GPR142 siRNA
same,FLG mRNA expression in the presence of GPR22 siRNA,[4],not suppressed
same,GPR22 mRNA expression in the presence of GPR22 siRNA,[4],suppressed by GPR22 siRNA
